# Data as given in US20220184054A1, “ANTI-VIRAL ACTIVITY OF VPS34 INHIBITORS” (priority 2020, published 2022).
# Where two headings read alike, the source gives them in different places.
# Experiments:
# [1] = tested on: SARS CoV-2 (USA_WA1/2020); assay: SARS CoV-2 CPE assay for antiviral activity (Vero E6 host cells, Cell Titer-Glo); type: cell-based; conditions: read-out: IC50 for inhibition of SARS CoV-2 mediated cell killing
# [2] = Compound cytotoxicity (CC50) counter screen in Vero E6 cells; type: cell-based; conditions: African green monkey, read-out: CC50 (general cytotoxic effects in Vero E6 cells)
# Method: Compound cytotoxicity (CC50) is assessed in a BSL-2 counter screen as follows: Host cells in media are added in 25 μl aliquots (4000 cells/well) to each well of assay ready plates prepared with test compounds as above. Cells only (100% viability) and cells treated with hyamine at 100 μM final concentration (0% viability) serve as the high and low signal controls, respectively, for cytotoxic effect in the assay. DMSO is maintained at a constant concentration for all wells (0.3%) as dictated by the dilution factor of stock test compound concentrations. After incubating plates at 37° C./5% CO2 and 90% humidity for 72 hours, 30 μl Cell Titer-Glo (Promega) is added to each well. Luminescence is read using a BMG PHERAstar plate reader following incubation at room temperature for 10 minutes to measure cell viability.
# SARS-CoV-2 = assay: microbe, parasite or virus in culture; type: cell-based; conditions: Severe acute respiratory syndrome coronavirus 2, A549, 48 h; read-out: IC50 for inhibition of SARS CoV-2 mediated cell killing
# in vitro = conditions: human
# [3] = Vero C1008, Vero E6 cells, 10-point dose response, high concentration 15 μM, 72 hours
Structure (SMILES),"IC50 [1, 3] [nM]",CC50 at 72 h [2] [nM],IC50 (SARS-CoV-2) [nM],CC50 (in vitro) [nM],"IC50 ([1]; Vero C1008, 72 h) [nM]"
O=c1cc(-c2ccnc3[nH]ncc23)cc(N2CCCCC2C(F)(F)F)[nH]1 (stereo not shown) [Compound 1],470,15000,510,8000,
N#Cc1cc2c(-c3cc(-c4ccccc4C(F)(F)F)[nH]c(=O)c3)ccnc2[nH]1 [Compound 2],3010,> 10000,1570,> 10000,
O=c1cc(-c2ccnc3[nH]c(C4CC4)cc23)cc(N2CCCCC2C(F)(F)F)[nH]1 (stereo not shown) [Compound 3],114,2830,29,482,
Cc1ccc(-c2cc3c(-c4cc(N5CCOCC5C(F)(F)F)[nH]c(=O)c4)ccnc3[nH]2)s1 (stereo not shown) [Compound 4],,1430,158,411,1040
